Series [1] relates to Trypanosoma brucei brucei. The experiment in a line: Effect on phosphatidylcholine level in Trypanosoma brucei brucei Lister 427 at 200 nM after 12 hrs by ES-MS analysis. Type of series: functional, organism-based.
A short description of series [2]: (§1) Cytotoxicity against human HepG2 cells after 48 hrs by Celltiter-Glo assay. It counts as cell-based. The conditions noted are these: HepG2 cells, read-out: TC50.
Series [3] addresses Serine/threonine-protein kinase mTOR (Homo sapiens, UniProt P42345). Briefly: Inhibition of human recombinant mTOR assessed as inhibition of 4EBP1 phosphorylation after 30 mins by TR-FRET analysis. Background: In TR-FRET formats the signal depends on donor and acceptor labels being close together.
The target in series [4] is Phosphatidylinositol 4,5-bisphosphate 3-kinase catalytic subunit alpha isoform (Homo sapiens, UniProt P42336). The experiment in a line: Inhibition of human PI3K-alpha assessed as inhibition of […] after 1 hr by TR-FRET analysis.
Chain of Phosphatidylinositol 4,5-bisphosphate 3-kinase catalytic subunit alpha isoform (P42336 whole entry, canonical isoform): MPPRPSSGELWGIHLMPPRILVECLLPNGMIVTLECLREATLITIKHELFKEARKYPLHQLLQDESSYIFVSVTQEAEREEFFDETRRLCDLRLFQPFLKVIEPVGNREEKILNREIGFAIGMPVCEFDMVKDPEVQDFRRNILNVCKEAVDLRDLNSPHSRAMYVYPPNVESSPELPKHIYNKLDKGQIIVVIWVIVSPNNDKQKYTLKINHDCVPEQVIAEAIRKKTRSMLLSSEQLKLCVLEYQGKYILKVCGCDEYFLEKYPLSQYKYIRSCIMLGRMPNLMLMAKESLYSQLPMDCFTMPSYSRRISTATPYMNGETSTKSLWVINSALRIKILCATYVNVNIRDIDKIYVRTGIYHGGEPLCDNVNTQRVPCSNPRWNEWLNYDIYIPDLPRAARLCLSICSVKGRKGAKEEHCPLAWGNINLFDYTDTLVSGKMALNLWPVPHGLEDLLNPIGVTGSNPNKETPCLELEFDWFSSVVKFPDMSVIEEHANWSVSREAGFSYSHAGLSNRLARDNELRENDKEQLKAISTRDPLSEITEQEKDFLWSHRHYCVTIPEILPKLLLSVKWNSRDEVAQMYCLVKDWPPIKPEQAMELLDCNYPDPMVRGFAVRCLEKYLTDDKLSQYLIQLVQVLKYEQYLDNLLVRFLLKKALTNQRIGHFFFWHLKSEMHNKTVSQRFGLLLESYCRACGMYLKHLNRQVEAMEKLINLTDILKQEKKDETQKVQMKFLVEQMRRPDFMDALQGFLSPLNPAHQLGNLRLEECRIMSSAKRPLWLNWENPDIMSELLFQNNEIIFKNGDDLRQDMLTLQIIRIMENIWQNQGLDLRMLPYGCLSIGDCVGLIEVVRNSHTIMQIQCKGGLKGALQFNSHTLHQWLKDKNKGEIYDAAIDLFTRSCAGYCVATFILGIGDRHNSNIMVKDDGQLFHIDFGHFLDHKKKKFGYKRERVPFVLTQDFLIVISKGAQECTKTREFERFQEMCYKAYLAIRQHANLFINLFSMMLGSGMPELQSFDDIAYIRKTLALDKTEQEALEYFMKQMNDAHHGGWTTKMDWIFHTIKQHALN
In series [5] the target is Phosphatidylinositol 4,5-bisphosphate 3-kinase catalytic subunit beta isoform (Homo sapiens, UniProt P42338). The experiment in a line: Inhibition of human PI3K-beta assessed as inhibition of […] after 1 hr by TR-FRET analysis.
Chain of Phosphatidylinositol 4,5-bisphosphate 3-kinase catalytic subunit beta isoform (P42338 whole entry, canonical isoform): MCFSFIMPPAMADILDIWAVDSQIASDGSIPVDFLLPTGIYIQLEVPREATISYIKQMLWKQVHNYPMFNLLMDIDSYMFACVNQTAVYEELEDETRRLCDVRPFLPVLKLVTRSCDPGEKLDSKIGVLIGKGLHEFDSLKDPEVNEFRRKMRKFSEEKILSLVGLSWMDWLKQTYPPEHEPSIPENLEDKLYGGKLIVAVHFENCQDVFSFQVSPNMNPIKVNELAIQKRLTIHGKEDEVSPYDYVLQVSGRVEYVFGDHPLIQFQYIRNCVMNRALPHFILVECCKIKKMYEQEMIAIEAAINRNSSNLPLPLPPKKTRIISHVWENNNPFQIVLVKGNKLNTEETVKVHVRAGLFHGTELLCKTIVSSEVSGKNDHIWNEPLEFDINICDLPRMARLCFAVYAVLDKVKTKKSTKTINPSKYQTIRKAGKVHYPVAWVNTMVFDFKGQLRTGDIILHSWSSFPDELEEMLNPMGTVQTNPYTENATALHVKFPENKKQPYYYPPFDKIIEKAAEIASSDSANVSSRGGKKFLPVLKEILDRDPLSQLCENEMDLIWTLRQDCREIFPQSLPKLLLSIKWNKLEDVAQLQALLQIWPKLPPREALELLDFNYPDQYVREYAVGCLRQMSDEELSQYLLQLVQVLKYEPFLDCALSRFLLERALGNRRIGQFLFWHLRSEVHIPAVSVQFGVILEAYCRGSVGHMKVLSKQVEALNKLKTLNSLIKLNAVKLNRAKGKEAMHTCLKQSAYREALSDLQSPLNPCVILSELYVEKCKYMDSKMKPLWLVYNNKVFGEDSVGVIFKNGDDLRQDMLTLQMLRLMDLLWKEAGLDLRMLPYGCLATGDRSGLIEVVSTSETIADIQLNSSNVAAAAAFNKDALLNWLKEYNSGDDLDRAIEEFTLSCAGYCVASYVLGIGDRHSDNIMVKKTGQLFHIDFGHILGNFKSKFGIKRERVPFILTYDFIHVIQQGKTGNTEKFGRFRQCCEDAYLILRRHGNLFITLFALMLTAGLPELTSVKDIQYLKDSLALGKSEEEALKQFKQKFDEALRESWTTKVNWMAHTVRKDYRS
For series [6], the target named is Phosphatidylinositol 4,5-bisphosphate 3-kinase catalytic subunit gamma isoform (Homo sapiens, UniProt P48736). Briefly: Inhibition of human PI3K-gamma assessed as inhibition of […] after 1 hr by TR-FRET analysis.
Chain of Phosphatidylinositol 4,5-bisphosphate 3-kinase catalytic subunit gamma isoform (P48736 whole entry, canonical isoform): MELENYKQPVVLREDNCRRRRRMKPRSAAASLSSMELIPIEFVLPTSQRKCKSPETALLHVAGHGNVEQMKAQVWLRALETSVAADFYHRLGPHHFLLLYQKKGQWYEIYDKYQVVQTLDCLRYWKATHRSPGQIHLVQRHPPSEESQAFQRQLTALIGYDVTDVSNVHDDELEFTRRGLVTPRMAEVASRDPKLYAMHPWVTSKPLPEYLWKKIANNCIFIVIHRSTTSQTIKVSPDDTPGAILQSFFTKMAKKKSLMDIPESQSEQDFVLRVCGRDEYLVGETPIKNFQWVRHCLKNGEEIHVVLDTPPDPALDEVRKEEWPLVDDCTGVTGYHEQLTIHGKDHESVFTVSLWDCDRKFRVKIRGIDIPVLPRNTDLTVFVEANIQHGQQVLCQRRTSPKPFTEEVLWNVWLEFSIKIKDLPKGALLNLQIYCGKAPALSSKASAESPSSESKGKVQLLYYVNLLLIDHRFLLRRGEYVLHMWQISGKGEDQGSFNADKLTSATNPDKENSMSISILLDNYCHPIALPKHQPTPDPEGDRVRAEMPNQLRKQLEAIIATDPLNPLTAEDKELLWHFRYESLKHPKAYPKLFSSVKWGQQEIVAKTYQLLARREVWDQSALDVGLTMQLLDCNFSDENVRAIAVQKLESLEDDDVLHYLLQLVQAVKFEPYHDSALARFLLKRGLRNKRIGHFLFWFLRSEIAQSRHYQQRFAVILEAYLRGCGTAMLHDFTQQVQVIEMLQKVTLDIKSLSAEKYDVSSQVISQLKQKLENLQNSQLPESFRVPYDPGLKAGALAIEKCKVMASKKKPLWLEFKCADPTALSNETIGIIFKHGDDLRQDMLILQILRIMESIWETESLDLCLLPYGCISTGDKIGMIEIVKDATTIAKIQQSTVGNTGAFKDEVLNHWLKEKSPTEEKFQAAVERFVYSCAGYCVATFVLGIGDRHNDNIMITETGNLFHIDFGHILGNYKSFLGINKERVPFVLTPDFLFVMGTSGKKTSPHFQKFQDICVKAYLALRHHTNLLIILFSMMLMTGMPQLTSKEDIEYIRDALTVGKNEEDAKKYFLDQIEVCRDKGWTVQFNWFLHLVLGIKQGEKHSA
In series [7] the target is T1, Phosphatidylinositol 4,5-bisphosphate 3-kinase catalytic subunit delta isoform (Homo sapiens, UniProt O00329).
T1 sequence (O00329 whole entry): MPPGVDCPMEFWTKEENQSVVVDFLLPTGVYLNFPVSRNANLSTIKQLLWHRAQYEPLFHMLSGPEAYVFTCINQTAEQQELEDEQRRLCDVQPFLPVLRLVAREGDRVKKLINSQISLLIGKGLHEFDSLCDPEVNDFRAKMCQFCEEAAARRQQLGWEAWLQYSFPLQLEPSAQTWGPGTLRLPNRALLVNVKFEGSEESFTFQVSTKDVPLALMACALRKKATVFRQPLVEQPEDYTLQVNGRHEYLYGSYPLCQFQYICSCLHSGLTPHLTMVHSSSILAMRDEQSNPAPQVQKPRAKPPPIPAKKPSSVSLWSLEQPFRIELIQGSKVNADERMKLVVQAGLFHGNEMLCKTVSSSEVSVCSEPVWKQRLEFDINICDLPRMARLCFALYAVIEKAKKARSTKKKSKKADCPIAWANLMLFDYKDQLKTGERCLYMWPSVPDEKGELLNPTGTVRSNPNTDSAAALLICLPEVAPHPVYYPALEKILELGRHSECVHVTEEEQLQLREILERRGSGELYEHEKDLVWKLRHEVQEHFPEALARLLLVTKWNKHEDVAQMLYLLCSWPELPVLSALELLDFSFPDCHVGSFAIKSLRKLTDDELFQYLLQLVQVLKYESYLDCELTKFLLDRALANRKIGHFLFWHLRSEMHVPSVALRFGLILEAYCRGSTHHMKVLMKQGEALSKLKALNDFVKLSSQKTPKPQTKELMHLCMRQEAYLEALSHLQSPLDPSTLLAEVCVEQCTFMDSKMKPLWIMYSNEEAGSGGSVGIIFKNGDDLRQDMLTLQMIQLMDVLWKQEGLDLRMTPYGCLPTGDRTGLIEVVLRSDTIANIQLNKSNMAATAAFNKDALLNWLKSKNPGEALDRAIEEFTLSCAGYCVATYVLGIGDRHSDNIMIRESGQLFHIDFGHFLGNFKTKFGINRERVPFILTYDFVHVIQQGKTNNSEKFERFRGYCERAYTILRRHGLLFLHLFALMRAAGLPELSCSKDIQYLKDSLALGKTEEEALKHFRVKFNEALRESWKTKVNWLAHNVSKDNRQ
The experiment in a line: Inhibition of human PI3K-delta assessed as inhibition of […] after 1 hr by TR-FRET analysis.

Series [8] in a line: Lipophilicity, log D of the compound at pH 7.4 by HPLC analysis. As to conditions: buffer. Type of series: physicochemical.
A short description of series [9]: Solubility of compound in phosphate buffer at pH 7.4 after 1 hr. Type of series: physicochemical.
Series [10] in a line: Apparent permeability across artificial membrane after 3 hrs by HPLC analysis. Type of series: physicochemical.
Series [11] concerns Trypanosoma brucei brucei. Briefly: Effect on sphingomylein level in Trypanosoma brucei brucei Lister 427 at 200 nM after 12 hrs by ES-MS analysis. It counts as functional, organism-based.
For series [12], the system named is Trypanosoma brucei brucei. The experiment in a line: Effect on phosphotidyl inositol level in Trypanosoma brucei brucei Lister 427 at 200 nM after 12 hrs by ES-MS analysis. It counts as functional, organism-based.
For series [13], the system named is Trypanosoma brucei brucei. The experiment in a line: Decrease in phosphotidyl inositol phosphate level in Trypanosoma brucei brucei Lister 427 at 200 nM after 12 hrs by ES-MS analysis. It counts as functional, organism-based.
Series [14] relates to Trypanosoma brucei brucei. The experiment in a line: Inhibition of receptor-mediated endocytosis in Trypanosoma brucei brucei Lister 427 assessed as decrease in transferrin uptake at 2 X EC50 after 18 hrs. It counts as functional, organism-based.
Series [15] concerns Trypanosoma brucei brucei. The experiment in a line: Antitrypanosomal activity against bloodstream Trypanosoma brucei brucei Lister 427 assessed as decrease in number of cell at G1 phase after 18 hrs by PI staining based flow cytometer. It counts as functional, organism-based.
Series [16] can be described thus: in vitro. The conditions noted are these: human, HepG2 cells.
Description: Selectivity ratio TC50 for human HepG2 cells to EC50 for Trypanosoma brucei brucei Lister 427
Series [17] deals with Trypanosoma brucei brucei. Briefly: microbe, parasite or virus in culture. The conditions noted are these: Lister 427, 70 h.
Description: Antitrypanosomal activity against bloodstream Trypanosoma brucei brucei Lister 427 after 70 hrs by resazurin assay
Series [18] relates to HepG2. Described as §1. It counts as cell-based. The conditions noted are these: hepg2, 48 h.

≈ marks a conversion by molar mass, not a printed value. Calls of active or inactive are those of the source. No cut-off for these calls is given here.

As a reminder, the IC50 is the concentration that gives 50% inhibition. As a reminder, the logD is lipophilicity at a set pH, counting ionised and neutral species. The low end stands for lower lipophilicity, the high end for higher lipophilicity. In general, kinetic solubility refers to the concentration staying in solution when a stock, usually in DMSO, is diluted into the medium. Usually EC50 stands for the concentration needed to bring the measured effect to its halfway point. In the case of `Cc1ccc(-n2c(=O)n(C)c3cnc4ccc(-c5ccncc5)cc4c32)cc1`, the result in series [1] and in series [11] was inactive. Besides, the CC50 at 48 h in series [2] was 4780 nM. The IC50 in [3] came out at 468 nM; in [4] it was 631 nM; in [5] it was 31600 nM; in [6] it was 251 nM; in [7] it was 2510 nM. In series [8], this compound gave a logD of 4.95. In series [9], this compound showed a solubility (kinetic) at 1 h of 17 µM (≈ 6.23 µg/mL). For the same compound, in series [10], the permeability was 47 ×10⁻⁶ cm/s. Moreover, the result in series [12] was Active. The inhibition entry in series [13] and in [14] was “Active” throughout. The inhibition result in series [15] is “inactive”. The selectivity ratio in [16] is 24. For the same compound, in series [17], the EC50 is 202 nM.
For the compound `COc1ccc(-n2c(=O)n(C)c3cnc4ccc(-c5ccncc5)cc4c32)cc1`, the result in series [1] and in series [11] was inactive. The CC50 at 48 h in [2] turned out to be 11200 nM. Further, the IC50 in series [3] came to 380 nM; in [4], 501 nM; in [5], 7940 nM; in series [6], 316 nM; in series [7], 2510 nM. The compound further yielded a logD in series [8] of 5.32. The compound further showed a solubility (kinetic) at 1 h in [9] of 22 µM (≈ 8.41 µg/mL). In series [10], the permeability came to 86 ×10⁻⁶ cm/s. In addition, the result in [12] was Active. Besides, the inhibition entry in [13] and in series [14] was “Active” in each case. Also, in series [15], the inhibition entry was “inactive”. In [16], the selectivity ratio came to 67. For the same compound, the EC50 in [17] stood at 166 nM.
With `Cn1c(=O)n(-c2ccc(C#N)cc2)c2c3cc(-c4ccncc4)ccc3ncc21`, the TC50 result in series [18] is listed as “ND(Insoluble)”. In series [17], this compound had an EC50 of 72 nM.
As to `Cn1c(=O)n(-c2ccc(C(C)(C)C#N)cc2)c2c3cc(-c4cnc5ccccc5c4)ccc3ncc21` [DACTOLISIB], the outcome in [1] and in series [11] was inactive. The TC50 entry in [18] was “ND(Insoluble)”. In [8], this compound registered a logD of 6.44. Further, the solubility (kinetic) at 1 h in series [9] came out at 19 µM (≈ 8.92 µg/mL). Moreover, the permeability entry in [10] was “ND(Insoluble)”. Besides, the outcome in series [12] was Active. Also, the inhibition entry in [13] and in series [14] was “Active” each time. In addition, the inhibition result in [15] was “inactive”.
